For 31 molecules, IC50 results are on record in patent US8124610B2, “Sodium channel inhibitors” (Icagen Inc., priority 2007, dated 2012).

In one assay the target is T1, hSCN9A (Homo sapiens, UniProt Q15858).
T1 construct: expressed in transfected cells
Kind of assay: Whole-cell patch-clamp electrophysiology (conventional or PatchXpress), HEK cells expressing hSCN9A, estimated IC-50. Type of assay: cell-based. The settings on record: estimated IC-50, HEK cells expressing hSCN9A; class symbols or bounds; read-out: SCN9A EIC-50. Summed up: (§1)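 Stably transfected HEK cells recorded by whole-cell voltage clamp (manual or PatchXpress) at 22–24 °C in pH 7.4 HEPES-buffered extracellular solution. Cells held at the empirically determined inactivation V1/2 after an 8 s prepulse, then stepped to 0 mV for 20 ms; % inhibition from current amplitude before vs after compound.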

A further assay deals with T2, hSCN3A (Homo sapiens, UniProt Q9NY46).
T2 construct: expressed in transfected cells
Kind of assay: Whole-cell patch-clamp electrophysiology (conventional or PatchXpress), HEK cells expressing hSCN3A, estimated IC-50. The settings on record: estimated IC-50, HEK cells expressing hSCN3A; class symbols or bounds; read-out: SCN3A EIC-50. The assay is classed as cell-based. Summed up: as §1

T1 sequence (Q15858 whole entry): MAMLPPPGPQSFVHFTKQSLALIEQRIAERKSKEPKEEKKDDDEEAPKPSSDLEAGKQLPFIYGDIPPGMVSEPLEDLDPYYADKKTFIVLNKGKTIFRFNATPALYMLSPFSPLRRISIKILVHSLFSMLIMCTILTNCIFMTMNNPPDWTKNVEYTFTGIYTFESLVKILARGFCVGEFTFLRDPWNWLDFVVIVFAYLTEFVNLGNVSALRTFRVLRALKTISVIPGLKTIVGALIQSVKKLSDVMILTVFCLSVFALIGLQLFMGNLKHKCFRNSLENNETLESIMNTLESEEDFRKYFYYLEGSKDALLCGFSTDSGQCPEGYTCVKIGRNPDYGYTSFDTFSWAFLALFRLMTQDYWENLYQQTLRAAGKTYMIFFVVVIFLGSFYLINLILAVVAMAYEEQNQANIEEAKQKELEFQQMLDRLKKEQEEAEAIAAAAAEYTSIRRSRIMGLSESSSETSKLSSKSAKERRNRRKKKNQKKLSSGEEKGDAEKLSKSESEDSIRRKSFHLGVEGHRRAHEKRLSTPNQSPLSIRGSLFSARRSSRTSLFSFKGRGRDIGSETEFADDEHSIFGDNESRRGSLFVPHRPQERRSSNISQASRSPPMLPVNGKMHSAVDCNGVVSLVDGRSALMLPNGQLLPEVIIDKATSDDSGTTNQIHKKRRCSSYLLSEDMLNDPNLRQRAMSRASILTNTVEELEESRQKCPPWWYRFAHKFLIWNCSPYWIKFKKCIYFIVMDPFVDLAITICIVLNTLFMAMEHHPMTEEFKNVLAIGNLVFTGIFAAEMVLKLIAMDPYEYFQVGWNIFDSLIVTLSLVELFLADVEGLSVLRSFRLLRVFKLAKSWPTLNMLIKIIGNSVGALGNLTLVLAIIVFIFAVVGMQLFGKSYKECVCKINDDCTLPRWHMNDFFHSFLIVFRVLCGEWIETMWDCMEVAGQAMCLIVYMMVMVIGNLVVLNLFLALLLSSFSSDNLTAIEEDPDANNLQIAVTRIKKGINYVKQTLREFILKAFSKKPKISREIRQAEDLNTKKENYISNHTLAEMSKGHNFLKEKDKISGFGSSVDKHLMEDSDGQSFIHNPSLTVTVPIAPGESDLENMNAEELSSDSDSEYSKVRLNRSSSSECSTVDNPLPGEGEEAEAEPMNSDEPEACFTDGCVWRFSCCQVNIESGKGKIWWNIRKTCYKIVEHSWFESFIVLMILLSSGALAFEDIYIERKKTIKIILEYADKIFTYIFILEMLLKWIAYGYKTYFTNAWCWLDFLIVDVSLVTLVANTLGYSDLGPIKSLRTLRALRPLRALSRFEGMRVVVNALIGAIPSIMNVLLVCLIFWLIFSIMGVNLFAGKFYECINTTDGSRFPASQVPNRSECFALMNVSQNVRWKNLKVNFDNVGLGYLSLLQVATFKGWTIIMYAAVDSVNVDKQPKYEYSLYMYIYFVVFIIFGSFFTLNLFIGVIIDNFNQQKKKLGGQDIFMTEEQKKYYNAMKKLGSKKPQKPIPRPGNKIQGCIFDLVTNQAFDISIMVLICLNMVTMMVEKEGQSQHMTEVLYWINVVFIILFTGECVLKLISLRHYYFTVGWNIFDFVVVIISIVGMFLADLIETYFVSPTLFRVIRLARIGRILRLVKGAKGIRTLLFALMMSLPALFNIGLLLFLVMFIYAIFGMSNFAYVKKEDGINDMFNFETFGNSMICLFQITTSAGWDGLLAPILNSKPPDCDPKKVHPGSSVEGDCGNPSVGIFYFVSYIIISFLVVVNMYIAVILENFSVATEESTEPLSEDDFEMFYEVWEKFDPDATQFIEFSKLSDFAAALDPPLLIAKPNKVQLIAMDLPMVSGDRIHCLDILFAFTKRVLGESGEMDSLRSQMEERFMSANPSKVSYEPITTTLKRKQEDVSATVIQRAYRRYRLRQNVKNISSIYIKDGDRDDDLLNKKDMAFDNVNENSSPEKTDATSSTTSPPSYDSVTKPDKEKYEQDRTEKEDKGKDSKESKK
T2 sequence (Q9NY46 whole entry): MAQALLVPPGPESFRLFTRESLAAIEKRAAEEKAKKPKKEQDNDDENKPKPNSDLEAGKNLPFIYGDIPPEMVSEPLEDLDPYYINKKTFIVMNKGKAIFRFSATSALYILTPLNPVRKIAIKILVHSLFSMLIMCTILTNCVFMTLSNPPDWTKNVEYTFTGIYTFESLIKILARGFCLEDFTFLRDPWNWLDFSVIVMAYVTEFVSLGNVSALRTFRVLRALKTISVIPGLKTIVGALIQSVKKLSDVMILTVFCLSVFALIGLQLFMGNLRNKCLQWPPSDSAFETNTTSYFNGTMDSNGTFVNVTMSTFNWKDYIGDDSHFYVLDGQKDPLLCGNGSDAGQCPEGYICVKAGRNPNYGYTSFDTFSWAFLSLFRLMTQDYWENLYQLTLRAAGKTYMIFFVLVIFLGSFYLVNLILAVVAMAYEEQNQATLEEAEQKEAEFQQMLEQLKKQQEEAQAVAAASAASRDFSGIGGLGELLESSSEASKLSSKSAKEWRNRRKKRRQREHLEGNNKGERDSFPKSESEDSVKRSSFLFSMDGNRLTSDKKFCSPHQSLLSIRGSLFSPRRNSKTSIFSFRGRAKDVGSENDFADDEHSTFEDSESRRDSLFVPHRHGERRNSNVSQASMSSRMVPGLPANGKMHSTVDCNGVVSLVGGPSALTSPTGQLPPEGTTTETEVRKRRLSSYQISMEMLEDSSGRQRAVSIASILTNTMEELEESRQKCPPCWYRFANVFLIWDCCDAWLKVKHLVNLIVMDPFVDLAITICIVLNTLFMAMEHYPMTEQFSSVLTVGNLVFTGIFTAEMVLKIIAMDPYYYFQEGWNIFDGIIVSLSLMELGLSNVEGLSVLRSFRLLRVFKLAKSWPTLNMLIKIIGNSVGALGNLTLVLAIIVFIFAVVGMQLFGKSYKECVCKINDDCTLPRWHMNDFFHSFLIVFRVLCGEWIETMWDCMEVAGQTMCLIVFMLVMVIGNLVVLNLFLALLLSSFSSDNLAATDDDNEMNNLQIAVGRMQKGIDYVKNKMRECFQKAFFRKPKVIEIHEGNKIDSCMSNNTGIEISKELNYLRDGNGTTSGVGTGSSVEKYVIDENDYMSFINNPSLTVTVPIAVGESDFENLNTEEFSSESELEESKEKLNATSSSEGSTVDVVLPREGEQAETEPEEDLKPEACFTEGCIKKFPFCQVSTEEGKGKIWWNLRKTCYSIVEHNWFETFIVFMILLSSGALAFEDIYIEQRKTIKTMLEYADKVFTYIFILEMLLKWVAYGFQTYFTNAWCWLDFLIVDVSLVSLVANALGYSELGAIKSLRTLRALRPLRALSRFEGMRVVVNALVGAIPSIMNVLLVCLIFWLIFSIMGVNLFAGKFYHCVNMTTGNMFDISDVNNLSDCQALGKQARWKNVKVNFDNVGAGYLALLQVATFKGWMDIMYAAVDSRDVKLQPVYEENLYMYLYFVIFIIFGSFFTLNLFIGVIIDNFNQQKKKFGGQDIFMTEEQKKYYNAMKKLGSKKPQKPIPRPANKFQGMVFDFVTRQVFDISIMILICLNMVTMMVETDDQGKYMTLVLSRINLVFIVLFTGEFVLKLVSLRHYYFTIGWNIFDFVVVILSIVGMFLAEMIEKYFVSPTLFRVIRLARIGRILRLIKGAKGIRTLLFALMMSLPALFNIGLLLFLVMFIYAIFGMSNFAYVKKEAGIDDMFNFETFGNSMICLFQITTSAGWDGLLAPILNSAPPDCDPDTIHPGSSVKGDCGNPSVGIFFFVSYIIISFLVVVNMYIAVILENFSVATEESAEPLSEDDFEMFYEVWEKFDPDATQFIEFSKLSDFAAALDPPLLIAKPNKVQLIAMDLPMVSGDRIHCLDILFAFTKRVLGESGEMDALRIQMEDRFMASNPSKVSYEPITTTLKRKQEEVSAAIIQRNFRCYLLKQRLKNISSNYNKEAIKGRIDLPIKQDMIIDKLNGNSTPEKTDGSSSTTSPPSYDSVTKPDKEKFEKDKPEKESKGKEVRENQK

For the molecule `O=S(=O)(Nc1ccccn1)c1ccc(Nc2nc(Cc3ccc(Cl)cc3)cs2)cc1` [Compound 103, 4-(4-(4-chlorobenzyl)thiazol-2-ylamino)-N-(pyridin-2-yl)benzenesulfonamide], the IC50 was over 1000 nM at hSCN9A and over 10000 nM at hSCN3A.
In the same order, the values of `O=S(=O)(Nc1nccs1)c1ccc(Nc2ncc(S(=O)(=O)c3ccc(Cl)cc3)s2)cc1F` [Compound 105, 4-(5-(4-chlorophenylsulfonyl)thiazol-2-ylamino)-2-fluoro-N-(thiazol-2-yl)benzenesulfonamide] are over 10000 nM and under 2000 nM.
`CC(C)(C)c1csc(Nc2ccc(S(=O)(=O)Nc3nccs3)cn2)n1` [Compound 106, 6-(4-tert-butylthiazol-2-ylamino)-N-(thiazol-2-yl)pyridine-3-sulfonamide]: the IC50 was over 1000 nM on hSCN9A and 2000 to 10000 nM at hSCN3A.
For `O=S(=O)(Nc1nccs1)c1ccc(Nc2nc(Cc3ccc(Cl)cc3)cs2)nc1` [Compound 107, 6-(4-(4-chlorobenzyl)thiazol-2-ylamino)-N-(thiazol-2-yl)pyridine-3-sulfonamide], in that order: 2000 to 10000 nM and under 2000 nM.
As to `Cc1cnc(NS(=O)(=O)c2ccc(Nc3nc(Cc4ccc(Cl)cc4)cs3)cc2F)s1` [Compound 108, 4-(4-(4-chlorobenzyl)thiazol-2-ylamino)-2-fluoro-N-(5-methylthiazol-2-yl)benzenesulfonamide], the IC50 at hSCN9A and at hSCN3A was 2000 to 10000 nM in each case.
On to `Cc1csc(NS(=O)(=O)c2ccc(Nc3nc(Cc4ccc(Cl)cc4)cs3)cc2F)n1` [Compound 109, 4-(4-(4-chlorobenzyl)thiazol-2-ylamino)-2-fluoro-N-(4-methylthiazol-2-yl)benzenesulfonamide], for which the IC50 on hSCN9A is 2000 to 10000 nM; on hSCN3A, under 2000 nM.
In the same order, the values of `CC(C)(C)n1nc(Cc2ccc(Cl)cc2)cc1Nc1ccc(S(=O)(=O)Nc2ccccn2)cc1` [Compound 110, 4-(1-tert-butyl-3-(4-chlorobenzyl)-1H-pyrazol-5-ylamino)-N-(pyridin-2-yl)benzenesulfonamide] are over 10000 nM and under 2000 nM.
In the same order, the values of `CC(C)(C)n1nc(Cc2ccc(Cl)cc2)cc1Nc1ccc(S(=O)(=O)Nc2nncs2)cc1` [Compound 111, 4-(1-tert-butyl-3-(4-chlorobenzyl)-1H-pyrazol-5-ylamino)-N-(1,3,4-thiadiazol-2-yl)benzenesulfonamide] are 2000 to 10000 nM and under 2000 nM.
In the same order, the values of `NC(=O)c1cnn(-c2ccc(F)c(Cl)c2)c1Nc1ccc(S(=O)(=O)Nc2nccs2)cc1` [Compound 112, 1-(3-chloro-4-fluorophenyl)-5-(4-(N-thiazol-2-ylsulfamoyl)phenylamino)-1H-pyrazole-4-carboxamide] are over 1000 nM and over 1000 nM.
Take `CC(C)(C)c1csc(Nc2ccc(S(=O)(=O)Nc3nccs3)c(C#N)c2)n1` [Compound 113, 4-(4-tert-butylthiazol-2-ylamino)-2-cyano-N-(thiazol-2-yl)benzenesulfonamide]: the IC50 at hSCN9A is over 1000 nM; at hSCN3A, 2000 to 10000 nM.
With `O=S(=O)(Nc1nccs1)c1ccc(Nc2cc(Cc3ccc(Cl)cc3)n[nH]2)cc1F` [Compound 115, 4-(3-(4-chlorobenzyl)-1H-pyrazol-5-ylamino)-2-fluoro-N-(thiazol-2-yl)benzenesulfonamide], the IC50 on hSCN9A and at hSCN3A was under 2000 nM throughout.
On to `Cn1nc(C2(c3ccc(Cl)cc3)CC2)cc1Nc1ccc(S(=O)(=O)Nc2nccs2)cc1` [Compound 129, 4-(3-(1-(4-chlorophenyl)cyclopropyl)-1-methyl-1H-pyrazol-5-ylamino)-N-(thiazol-2-yl)benzenesulfonamide], for which the IC50 at hSCN9A and at hSCN3A was under 2000 nM each time.
For `O=S(=O)(Nc1nccs1)c1ccc(Nc2cnn(CC(F)(F)F)c2)cc1F` [Compound 130, 2-fluoro-N-(thiazol-2-yl)-4-(1-(2,2,2-trifluoroethyl)-1H-pyrazol-4-ylamino)benzenesulfonamide], the IC50 on hSCN9A is 2000 to 10000 nM; on hSCN3A it was under 2000 nM.
For `Cn1nc(CC2CCCCC2)cc1Nc1ccc(S(=O)(=O)Nc2nccs2)c(F)c1` [Compound 133, 4-(3-(cyclohexylmethyl)-1-methyl-1H-pyrazol-5-ylamino)-2-fluoro-N-(thiazol-2-yl)benzenesulfonamide], in that order: under 2000 nM and under 2000 nM.
In the same order, the values of `Cn1nc(CC2CCCCC2)cc1Nc1ccc(S(=O)(=O)Nc2nccs2)c(O)c1` [Compound 134, 4-(3-(cyclohexylmethyl)-1-methyl-1H-pyrazol-5-ylamino)-2-hydroxy-N-(thiazol-2-yl)benzenesulfonamide] are under 2000 nM and under 2000 nM.
For the molecule `CC(C)c1cc(Nc2ccc(S(=O)(=O)Nc3nccs3)c(F)c2)n(-c2ccccc2)n1` [Compound 145, 2-fluoro-4-(3-isopropyl-1-phenyl-1H-pyrazol-5-ylamino)-N-(thiazol-2-yl)benzenesulfonamide], the IC50 at hSCN9A and at hSCN3A was under 2000 nM each time.
In the case of `Cc1cc(Nc2ccc(S(=O)(=O)Nc3nccs3)c(F)c2)n(-c2ccccc2C)n1` [Compound 146, 2-fluoro-4-(3-methyl-1-o-tolyl-1H-pyrazol-5-ylamino)-N-(thiazol-2-yl)benzenesulfonamide], the IC50 on hSCN9A and at hSCN3A was under 2000 nM throughout.
Regarding `Cc1ccc(-n2nc(C)cc2Nc2ccc(S(=O)(=O)Nc3nccs3)c(F)c2)cc1` [Compound 147, 2-fluoro-4-(3-methyl-1-p-tolyl-1H-pyrazol-5-ylamino)-N-(thiazol-2-yl)benzenesulfonamide], the IC50 on hSCN9A and on hSCN3A was under 2000 nM in each case.
As for `Cc1cc(Nc2ccc(S(=O)(=O)Nc3nccs3)c(F)c2)n(-c2ccccc2Cl)n1` [Compound 149, 4-(1-(2-chlorophenyl)-3-methyl-1H-pyrazol-5-ylamino)-2-fluoro-N-(thiazol-2-yl)benzenesulfonamide], the IC50 at hSCN9A and on hSCN3A was under 2000 nM in each case.
On to `O=S(=O)(Nc1nccs1)c1ccc(Nc2cnn(Cc3ccc(C(F)(F)F)cc3)c2)cc1F` [Compound 150, 2-fluoro-N-(thiazol-2-yl)-4-(1-(4-(trifluoromethyl)benzyl)-1H-pyrazol-4-ylamino)benzenesulfonamide], for which the IC50 on hSCN9A and on hSCN3A was under 2000 nM in each case.
Turning to `O=S(=O)(Nc1nccs1)c1ccc(Nc2ccnn2-c2ccccc2)cc1` [Compound 151, 4-(1-phenyl-1H-pyrazol-5-ylamino)-N-(thiazol-2-yl)benzenesulfonamide], the IC50 at hSCN9A is 2000 to 10000 nM; at hSCN3A, under 2000 nM.
In the case of `Cc1cc(Nc2ccc(S(=O)(=O)Nc3nccs3)c(F)c2)n(-c2cccc(Cl)c2)n1` [Compound 152, 4-(1-(3-chlorophenyl)-3-methyl-1H-pyrazol-5-ylamino)-2-fluoro-N-(thiazol-2-yl)benzenesulfonamide], the IC50 at hSCN9A and at hSCN3A was under 2000 nM throughout.
As to `Cn1nc(-c2ccc(Cl)cc2)cc1Nc1ccc(S(=O)(=O)Nc2nccs2)c(F)c1` [Compound 153, 4-(3-(4-chlorophenyl)-1-methyl-1H-pyrazol-5-ylamino)-2-fluoro-N-(thiazol-2-yl)benzenesulfonamide], the IC50 on hSCN9A and on hSCN3A was under 2000 nM in each case.
Consider `O=S(=O)(Nc1nccs1)c1ccc(Nc2cc(-c3ccccc3)nn2-c2ccccc2)cc1F` [Compound 154, 4-(1,3-diphenyl-1H-pyrazol-5-ylamino)-2-fluoro-N-(thiazol-2-yl)benzenesulfonamide], for which the IC50 at hSCN9A and at hSCN3A was under 2000 nM each time.
Consider `NC(=O)Cn1nc(Cc2ccc(Cl)cc2)cc1Nc1ccc(S(=O)(=O)Nc2nccs2)cc1` [Compound 155, 2-(3-(4-chlorobenzyl)-5-(4-(N-thiazol-2-ylsulfamoyl)phenylamino)-1H-pyrazol-1-yl)acetamide], for which the IC50 on hSCN9A and at hSCN3A was under 2000 nM in each case.
Regarding `CC(C)(C)c1cc(Nc2ccc(S(=O)(=O)Nc3nccs3)c(F)c2)n(-c2ccccc2)n1` [Compound 156, 4-(3-tert-butyl-1-phenyl-1H-pyrazol-5-ylamino)-2-fluoro-N-(thiazol-2-yl)benzenesulfonamide], the IC50 on hSCN9A and on hSCN3A was under 2000 nM in each case.
Turning to `Cc1cc(Nc2ccc(S(=O)(=O)Nc3nccs3)c(Cl)c2)n(-c2ccccc2)n1` [Compound 161, 2-chloro-4-(3-methyl-1-phenyl-1H-pyrazol-5-ylamino)-N-(thiazol-2-yl)benzenesulfonamide], the IC50 on hSCN9A and on hSCN3A was under 2000 nM throughout.
Consider `Cc1cc(Nc2ccc(S(=O)(=O)Nc3ncc(Cl)s3)c(F)c2)n(-c2ccccc2)n1` [Compound 162, N-(5-chlorothiazol-2-yl)-2-fluoro-4-(3-methyl-1-phenyl-1H-pyrazol-5-ylamino)benzenesulfonamide], for which the IC50 on hSCN9A and at hSCN3A was under 2000 nM each time.
For `O=S(=O)(Nc1nccs1)c1ccc(Nc2ccccc2-c2ccccc2)cc1F` [Compound 172, 4-(biphenyl-2-ylamino)-2-fluoro-N-(thiazol-2-yl)benzenesulfonamide], the IC50 at hSCN9A and at hSCN3A was under 2000 nM throughout.
Regarding `Cc1cc(Nc2ccc(S(=O)(=O)Nc3nccs3)c(F)c2)n(-c2ccccc2F)n1` [Compound 173, 2-fluoro-4-(1-(2-fluorophenyl)-3-methyl-1H-pyrazol-5-ylamino)-N-(thiazol-2-yl)benzenesulfonamide], the IC50 on hSCN9A and at hSCN3A was under 2000 nM each time.
`Cc1cc(Nc2ccc(S(=O)(=O)Nc3nccs3)c(F)c2)n(-c2ccc(F)cc2Cl)n1` [Compound 182, 4-(1-(2-chloro-4-fluorophenyl)-3-methyl-1H-pyrazol-5-ylamino)-2-fluoro-N-(thiazol-2-yl)benzenesulfonamide]: the IC50 on hSCN9A and at hSCN3A was under 2000 nM each time.
